pIC50: −log10 of the molar value.
Tests used:
[1] = molecular target: GST-tagged truncated LRRK2 (Homo sapiens (Human), UniProt Q5S007); test: LRRK2 Lantha Screen kinase assay; format: biochemical; settings: geometric mean of 2-5 determinations unless otherwise indicated (a: >=6 determinations; b: single determination); read-out: LRRK2 WT IC50
GSK3B = GSK3B (Homo sapiens (Human), UniProt P49841); test: ActivX kinase probe assay (human PBMC); format: binding; settings: GSK3B, read-out: percent inhibition
LKB1 = LKB1 (Homo sapiens (Human), UniProt Q15831); test: ActivX kinase probe assay (human PBMC); format: binding; settings: LKB1, read-out: percent inhibition
MAP2K1 = MAP2K1 (Homo sapiens (Human), UniProt Q02750); test: ActivX kinase probe assay (human PBMC); format: binding; settings: MAP2K1, read-out: percent inhibition
NEK9 = NEK9 (Homo sapiens (Human), UniProt Q8TD19); test: ActivX kinase probe assay (human PBMC); format: binding; settings: NEK9, read-out: percent inhibition
MST1 = MST1 (Homo sapiens (Human), UniProt Q13043); test: ActivX kinase probe assay (human PBMC); format: binding; settings: read-out: percent inhibition
MAP2K1, MAP2K2 = test: ActivX kinase probe assay (human PBMC); format: binding
BTK = BTK (Homo sapiens (Human), UniProt Q06187); test: ActivX kinase probe assay (human PBMC); format: binding; settings: BTK, read-out: percent inhibition
RSK1, RSK2, RSK3 domain1 = test: ActivX kinase probe assay (human PBMC); format: binding
IKKe = IKKe (Homo sapiens (Human), UniProt Q14164); test: ActivX kinase probe assay (human PBMC); format: binding; settings: IKKe, read-out: percent inhibition
ZAK = ZAK (Homo sapiens (Human), UniProt Q9NYL2); test: ActivX kinase probe assay (human PBMC); format: binding; settings: ZAK, read-out: percent inhibition
HPK1 = HPK1 (Homo sapiens (Human), UniProt Q92918); test: ActivX kinase probe assay (human PBMC); format: binding; settings: HPK1, read-out: percent inhibition
PIK3C3 = PIK3C3 (Homo sapiens (Human), UniProt Q8NEB9); test: ActivX kinase probe assay (human PBMC); format: binding; settings: PIK3C3, read-out: percent inhibition
NDR2 = NDR2 (Homo sapiens (Human), UniProt Q9Y2H1); test: ActivX kinase probe assay (human PBMC); format: binding; settings: NDR2, read-out: percent inhibition
KHS1 = KHS1 (Homo sapiens (Human), UniProt Q9Y4K4); test: ActivX kinase probe assay (human PBMC); format: binding; settings: KHS1, read-out: percent inhibition
MAP2K6 = MAP2K6 (Homo sapiens (Human), UniProt P52564); test: ActivX kinase probe assay (human PBMC); format: binding; settings: MAP2K6, read-out: percent inhibition
MST2 = MST2 (Homo sapiens (Human), UniProt Q13188); test: ActivX kinase probe assay (human PBMC); format: binding; settings: read-out: percent inhibition
JAK1 domain2 = JAK1 domain2 (Homo sapiens (Human), UniProt P23458); test: ActivX kinase probe assay (human PBMC); format: binding; settings: JAK1 domain2, read-out: percent inhibition
MST1, MST2 = test: ActivX kinase probe assay (human PBMC); format: binding
[2] = tested on: ZC1/HGK, ZC2/TNIK, ZC3/MINK; test: ActivX kinase probe assay (human PBMC); format: binding
p38a = p38a (Homo sapiens (Human), UniProt Q16539); test: ActivX kinase probe assay (human PBMC); format: binding; settings: p38a, read-out: percent inhibition
MAP3K4 = MAP3K4 (Homo sapiens (Human), UniProt Q9Y6R4); test: ActivX kinase probe assay (human PBMC); format: binding; settings: MAP3K4, read-out: percent inhibition
CaMK1a = CaMK1a (Homo sapiens (Human), UniProt Q14012); test: ActivX kinase probe assay (human PBMC); format: binding; settings: CaMK1a, read-out: percent inhibition
CDK5 = CDK5 (Homo sapiens (Human), UniProt Q00535); test: ActivX kinase probe assay (human PBMC); format: binding; settings: CDK5, read-out: percent inhibition
CaMK1d = CaMK1d (Homo sapiens (Human), UniProt Q8IU85); test: ActivX kinase probe assay (human PBMC); format: binding; settings: CaMK1d, read-out: percent inhibition
mutant G2019S LRRK2 = mutant G2019S LRRK2 (Homo sapiens (Human), UniProt Q5S007, G2019S); test: LRRK2 Lantha Screen kinase assay, mutant enzyme; format: biochemical; settings: geometric mean of 2-5 determinations unless otherwise indicated (a: >=6 determinations; b: single determination)
IKKe, TBK1 = test: ActivX kinase probe assay (human PBMC); format: binding
LATS1 = LATS1 (Homo sapiens (Human), UniProt O95835); test: ActivX kinase probe assay (human PBMC); format: binding; settings: LATS1, read-out: percent inhibition
FAK = FAK (Homo sapiens (Human), UniProt Q05397); test: ActivX kinase probe assay (human PBMC); format: binding; settings: FAK, read-out: percent inhibition
CDK11, CDK8 = test: ActivX kinase probe assay (human PBMC); format: binding

Sequence of FAK (Q05397 whole entry): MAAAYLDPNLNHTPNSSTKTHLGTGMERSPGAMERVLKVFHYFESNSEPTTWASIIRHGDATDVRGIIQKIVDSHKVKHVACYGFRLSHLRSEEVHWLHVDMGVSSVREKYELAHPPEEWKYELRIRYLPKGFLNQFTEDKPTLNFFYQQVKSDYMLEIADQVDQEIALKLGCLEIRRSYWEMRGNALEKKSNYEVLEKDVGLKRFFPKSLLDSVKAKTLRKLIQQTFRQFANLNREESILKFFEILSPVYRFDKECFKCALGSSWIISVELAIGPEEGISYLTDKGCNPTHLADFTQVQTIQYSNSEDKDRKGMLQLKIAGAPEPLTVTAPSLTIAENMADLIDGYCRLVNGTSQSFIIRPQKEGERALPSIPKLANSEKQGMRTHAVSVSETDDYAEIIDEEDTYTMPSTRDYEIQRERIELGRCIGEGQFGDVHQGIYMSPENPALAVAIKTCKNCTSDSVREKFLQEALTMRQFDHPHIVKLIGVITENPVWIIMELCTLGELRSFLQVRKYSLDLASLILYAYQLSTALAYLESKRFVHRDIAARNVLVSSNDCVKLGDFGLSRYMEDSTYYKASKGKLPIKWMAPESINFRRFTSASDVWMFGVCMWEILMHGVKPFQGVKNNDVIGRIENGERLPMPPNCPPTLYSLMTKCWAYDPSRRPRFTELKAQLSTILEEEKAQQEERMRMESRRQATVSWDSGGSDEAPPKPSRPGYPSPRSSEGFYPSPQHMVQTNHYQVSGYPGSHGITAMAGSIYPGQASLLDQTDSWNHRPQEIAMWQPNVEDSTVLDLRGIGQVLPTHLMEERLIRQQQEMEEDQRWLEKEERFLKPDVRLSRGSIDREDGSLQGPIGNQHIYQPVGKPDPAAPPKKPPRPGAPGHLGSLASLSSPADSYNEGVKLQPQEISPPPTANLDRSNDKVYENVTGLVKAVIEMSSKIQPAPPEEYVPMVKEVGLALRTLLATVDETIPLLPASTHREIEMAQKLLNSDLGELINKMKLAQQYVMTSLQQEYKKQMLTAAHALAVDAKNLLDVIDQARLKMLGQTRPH
Sequence of NEK9 (Q8TD19 whole entry): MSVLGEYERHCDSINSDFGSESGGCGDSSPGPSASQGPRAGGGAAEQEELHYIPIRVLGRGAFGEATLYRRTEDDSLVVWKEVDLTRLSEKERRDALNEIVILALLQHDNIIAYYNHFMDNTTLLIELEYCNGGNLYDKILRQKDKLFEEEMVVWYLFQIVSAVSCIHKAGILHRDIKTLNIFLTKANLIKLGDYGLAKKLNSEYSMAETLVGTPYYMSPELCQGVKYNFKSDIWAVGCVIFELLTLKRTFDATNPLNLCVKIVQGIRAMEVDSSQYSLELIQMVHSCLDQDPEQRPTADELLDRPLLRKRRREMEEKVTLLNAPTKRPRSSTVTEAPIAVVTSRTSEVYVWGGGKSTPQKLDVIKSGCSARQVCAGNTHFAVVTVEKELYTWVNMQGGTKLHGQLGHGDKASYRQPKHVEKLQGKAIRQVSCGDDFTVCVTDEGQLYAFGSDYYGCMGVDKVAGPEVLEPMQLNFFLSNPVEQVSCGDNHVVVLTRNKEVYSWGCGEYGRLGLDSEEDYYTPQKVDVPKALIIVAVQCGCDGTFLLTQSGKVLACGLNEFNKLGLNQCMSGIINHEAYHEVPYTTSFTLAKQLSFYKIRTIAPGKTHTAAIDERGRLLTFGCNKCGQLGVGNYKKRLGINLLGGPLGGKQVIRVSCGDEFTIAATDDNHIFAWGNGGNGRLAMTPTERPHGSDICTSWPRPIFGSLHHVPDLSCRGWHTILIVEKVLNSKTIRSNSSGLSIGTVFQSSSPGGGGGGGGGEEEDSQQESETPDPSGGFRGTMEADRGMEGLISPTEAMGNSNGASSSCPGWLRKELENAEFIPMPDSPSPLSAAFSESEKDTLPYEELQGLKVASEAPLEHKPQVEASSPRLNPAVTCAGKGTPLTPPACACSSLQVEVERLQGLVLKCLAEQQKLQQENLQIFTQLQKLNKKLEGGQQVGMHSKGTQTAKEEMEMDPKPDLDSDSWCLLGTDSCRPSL
Sequence of MST1 (Q13043 whole entry): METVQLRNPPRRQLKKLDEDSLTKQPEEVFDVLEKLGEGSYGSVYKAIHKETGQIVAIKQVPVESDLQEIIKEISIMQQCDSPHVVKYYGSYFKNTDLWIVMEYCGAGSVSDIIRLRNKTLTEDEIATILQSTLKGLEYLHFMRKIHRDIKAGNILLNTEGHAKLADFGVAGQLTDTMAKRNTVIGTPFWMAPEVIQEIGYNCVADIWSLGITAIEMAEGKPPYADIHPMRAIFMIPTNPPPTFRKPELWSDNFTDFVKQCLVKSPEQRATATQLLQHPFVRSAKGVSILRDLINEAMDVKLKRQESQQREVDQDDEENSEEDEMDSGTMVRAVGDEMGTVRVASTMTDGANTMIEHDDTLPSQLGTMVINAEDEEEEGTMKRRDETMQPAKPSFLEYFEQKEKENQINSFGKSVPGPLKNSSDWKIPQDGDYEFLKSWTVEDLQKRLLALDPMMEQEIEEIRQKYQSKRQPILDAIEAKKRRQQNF
Sequence of MAP2K6 (P52564 whole entry): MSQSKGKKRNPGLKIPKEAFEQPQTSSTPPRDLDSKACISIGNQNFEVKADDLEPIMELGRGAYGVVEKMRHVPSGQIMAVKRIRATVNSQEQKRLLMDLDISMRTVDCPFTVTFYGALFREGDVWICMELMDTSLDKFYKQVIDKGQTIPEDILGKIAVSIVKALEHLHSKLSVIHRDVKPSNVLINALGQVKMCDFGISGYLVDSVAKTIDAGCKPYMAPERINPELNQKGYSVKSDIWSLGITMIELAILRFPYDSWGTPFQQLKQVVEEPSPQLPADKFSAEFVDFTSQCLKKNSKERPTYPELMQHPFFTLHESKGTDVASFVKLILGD
Sequence of GSK3B (P49841 whole entry): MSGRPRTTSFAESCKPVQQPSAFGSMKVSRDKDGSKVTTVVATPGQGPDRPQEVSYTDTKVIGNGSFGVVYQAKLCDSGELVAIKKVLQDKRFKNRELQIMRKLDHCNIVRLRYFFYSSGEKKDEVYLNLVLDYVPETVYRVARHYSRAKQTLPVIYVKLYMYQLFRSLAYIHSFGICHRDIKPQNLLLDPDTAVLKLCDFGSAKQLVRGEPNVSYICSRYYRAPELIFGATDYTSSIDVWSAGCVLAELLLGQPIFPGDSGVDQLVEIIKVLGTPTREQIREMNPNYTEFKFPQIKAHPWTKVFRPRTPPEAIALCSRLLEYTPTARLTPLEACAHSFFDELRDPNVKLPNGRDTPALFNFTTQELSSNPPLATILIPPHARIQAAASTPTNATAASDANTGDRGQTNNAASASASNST
Sequence of IKKe (Q14164 whole entry): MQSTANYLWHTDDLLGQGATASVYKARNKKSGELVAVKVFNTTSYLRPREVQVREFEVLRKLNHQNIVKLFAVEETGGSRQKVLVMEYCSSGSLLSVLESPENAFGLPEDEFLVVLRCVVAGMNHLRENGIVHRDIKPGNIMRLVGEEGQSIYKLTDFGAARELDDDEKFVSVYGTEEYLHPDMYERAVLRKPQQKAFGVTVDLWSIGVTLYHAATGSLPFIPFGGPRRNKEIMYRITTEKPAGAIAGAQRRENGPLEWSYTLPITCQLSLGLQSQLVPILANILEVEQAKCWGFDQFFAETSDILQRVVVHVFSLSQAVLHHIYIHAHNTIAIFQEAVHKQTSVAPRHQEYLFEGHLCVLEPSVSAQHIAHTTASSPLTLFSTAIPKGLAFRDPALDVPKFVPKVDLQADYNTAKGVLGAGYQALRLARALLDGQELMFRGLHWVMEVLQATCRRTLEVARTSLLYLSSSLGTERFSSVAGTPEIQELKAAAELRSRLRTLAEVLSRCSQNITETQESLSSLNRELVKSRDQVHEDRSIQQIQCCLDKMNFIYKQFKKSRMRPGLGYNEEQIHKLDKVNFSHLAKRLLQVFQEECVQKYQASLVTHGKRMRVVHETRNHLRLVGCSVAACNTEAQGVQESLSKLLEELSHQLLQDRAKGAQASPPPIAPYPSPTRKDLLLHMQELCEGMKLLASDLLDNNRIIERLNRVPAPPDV
Sequence of PIK3C3 (Q8NEB9 whole entry): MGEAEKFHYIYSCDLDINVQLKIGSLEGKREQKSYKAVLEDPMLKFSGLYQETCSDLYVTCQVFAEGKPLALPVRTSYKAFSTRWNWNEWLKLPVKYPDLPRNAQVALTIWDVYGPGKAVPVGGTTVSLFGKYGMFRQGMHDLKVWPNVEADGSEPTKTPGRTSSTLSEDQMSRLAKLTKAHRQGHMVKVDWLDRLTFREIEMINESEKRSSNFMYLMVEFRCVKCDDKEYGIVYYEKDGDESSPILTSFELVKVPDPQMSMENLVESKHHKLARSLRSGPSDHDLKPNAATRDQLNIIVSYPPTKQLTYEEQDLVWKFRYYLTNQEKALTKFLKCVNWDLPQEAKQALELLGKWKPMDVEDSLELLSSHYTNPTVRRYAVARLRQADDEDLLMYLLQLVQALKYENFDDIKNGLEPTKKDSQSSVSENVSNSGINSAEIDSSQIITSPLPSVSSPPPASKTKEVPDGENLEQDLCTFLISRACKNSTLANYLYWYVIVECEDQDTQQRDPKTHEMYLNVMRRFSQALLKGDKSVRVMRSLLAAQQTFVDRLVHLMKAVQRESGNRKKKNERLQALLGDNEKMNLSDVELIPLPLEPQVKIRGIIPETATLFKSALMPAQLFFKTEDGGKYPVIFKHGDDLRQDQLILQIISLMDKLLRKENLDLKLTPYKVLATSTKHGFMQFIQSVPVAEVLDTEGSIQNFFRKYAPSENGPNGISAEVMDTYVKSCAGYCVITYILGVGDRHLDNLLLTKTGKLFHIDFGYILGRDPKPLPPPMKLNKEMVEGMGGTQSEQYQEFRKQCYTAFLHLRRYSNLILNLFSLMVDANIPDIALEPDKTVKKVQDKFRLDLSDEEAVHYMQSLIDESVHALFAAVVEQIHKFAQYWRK

## Cn1cc(-c2c[nH]c3ncnc(N4CCOCC4)c23)cn1 [Example 1, 5-(1-Methyl-1H-pyrazol-4-yl)-4-(morpholin-4-yl)-7H-pyrrolo[2,3-d]pyrimidine]
[1]
  pIC50: 7.89
GSK3B; 0.1 μM
  inhibition at 0.1 µM: 2.4%
GSK3B; 1 μM
  inhibition at 1 µM: -5.2%
LKB1; 0.1 μM
  inhibition at 0.1 µM: -1.1%
LKB1; 1 μM
  inhibition at 1 µM: -14%
MAP2K1; 0.1 μM
  inhibition at 0.1 µM: 3.5%
MAP2K1; 1 μM
  inhibition at 1 µM: 17%
NEK9; 0.1 μM
  inhibition at 0.1 µM: -0.9%
NEK9; 1 μM
  inhibition at 1 µM: 12.6%
MST1; 0.1 μM
  inhibition at 0.1 µM: 13.2%
MST1; 1 μM
  inhibition at 1 µM: 50.8%
MAP2K1, MAP2K2; 0.1 μM
  percent inhibition: 1%
MAP2K1, MAP2K2; 1 μM
  percent inhibition: −2.2%
BTK; 0.1 μM
  inhibition at 0.1 µM: 8.7%
BTK; 1 μM
  inhibition at 1 µM: 3.7%
RSK1, RSK2, RSK3 domain1; 0.1 μM
  percent inhibition: 3%
RSK1, RSK2, RSK3 domain1; 1 μM
  percent inhibition: 18.7%
IKKe; 0.1 μM
  inhibition at 0.1 µM: 2.6%
IKKe; 1 μM
  inhibition at 1 µM: 17.7%
ZAK; 0.1 μM
  inhibition at 0.1 µM: 15%
ZAK; 1 μM
  inhibition at 1 µM: 23.1%
HPK1; 0.1 μM
  inhibition at 0.1 µM: -9.7%
HPK1; 1 μM
  inhibition at 1 µM: -14.9%
PIK3C3; 0.1 μM
  inhibition at 0.1 µM: 23.3%
PIK3C3; 1 μM
  inhibition at 1 µM: 4.8%
NDR2; 0.1 μM
  inhibition at 0.1 µM: 22.8%
NDR2; 1 μM
  inhibition at 1 µM: 31.2%
KHS1; 0.1 μM
  inhibition at 0.1 µM: 17.8%
KHS1; 1 μM
  inhibition at 1 µM: 24.6%
MAP2K6; 0.1 μM
  inhibition at 0.1 µM: 17.5%
MAP2K6; 1 μM
  inhibition at 1 µM: 19%
MST2; 0.1 μM
  inhibition at 0.1 µM: 10.1%
MST2; 1 μM
  inhibition at 1 µM: 49.4%
JAK1 domain2; 0.1 μM
  inhibition at 0.1 µM: -8.1%
JAK1 domain2; 1 μM
  inhibition at 1 µM: -13.7%
MST1, MST2; 0.1 μM
  percent inhibition: −14.5%
MST1, MST2; 1 μM
  percent inhibition: 24.8%
[2]; 0.1 μM
  percent inhibition: −18%
[2]; 1 μM
  percent inhibition: 4.9%
p38a; 0.1 μM
  inhibition at 0.1 µM: -23.5%
p38a; 1 μM
  inhibition at 1 µM: -19.8%
MAP3K4; 0.1 μM
  inhibition at 0.1 µM: -14%
MAP3K4; 1 μM
  inhibition at 1 µM: 6.9%
CaMK1a; 0.1 μM
  inhibition at 0.1 µM: 2%
CaMK1a; 1 μM
  inhibition at 1 µM: 6.3%
CDK5; 0.1 μM
  inhibition at 0.1 µM: -6.5%
CDK5; 1 μM
  inhibition at 1 µM: -35.1%
CaMK1d; 0.1 μM
  inhibition at 0.1 µM: 8.4%
CaMK1d; 1 μM
  inhibition at 1 µM: 3.2%
Mutant G2019S LRRK2
  pIC50: 7.44
IKKe, TBK1; 0.1 μM
  percent inhibition: 1.5%
IKKe, TBK1; 1 μM
  percent inhibition: 23.7%
LATS1; 0.1 μM
  inhibition at 0.1 µM: 4.2%
LATS1; 1 μM
  inhibition at 1 µM: -16.2%
FAK; 0.1 μM
  inhibition at 0.1 µM: 18%
FAK; 1 μM
  inhibition at 1 µM: 20%
CDK11, CDK8; 0.1 μM
  percent inhibition: 4.4%
CDK11, CDK8; 1 μM
  percent inhibition: 2.4%

Source: US9156845B2, “4-(substituted amino)-7H-pyrrolo[2,3-d] pyrimidines as LRRK2 inhibitors” (Pfizer Inc., priority 2012, dated 2015)
